The values below come from patent EP4653001A1, “TREATMENT, DIAGNOSIS AND/OR PROGNOSIS OF MITOCHONDRIAL DISEASES” (Universidad Autónoma de Madrid, priority 2024, dated 2025).

Molecules are shown by their SMILES.

What all share (format): cell-based
In experiment [1] the test system is mouse cortical neurons. In words: ATP measurement in neurons (ATP Assay Kit). The note with it: CI-inhibited neurons, 100 nM, 24 h. The procedure:
Primary cultures of C57BL/6 mouse cortical neurons were prepared from embryos between embryonic days 16.5 and 17.5 and seeded onto pre-treated plates coated with Poly-L-lysine hydrobromide (500 µg/ml). We used Neurobasal medium without D-glucose and sodium pyruvate (ThermoFisher) to modulate D-glucose levels, depending on the experiment (2.5 mM, 5 mM, or 25 mM).
In standard experiments, we utilized Neurobasal medium with 25 mM D-glucose, 1 mM sodium pyruvate (ThermoFisher), B27 plus supplement (GIBCO), GlutaMax I 100X (GIBCO), and 1% penicillin/streptomycin (P/S). Starting from day 6 in vitro (DIV6), half of the medium was replaced every 3-4 days, omitting GlutaMax I.
ATP Assay Kit (Abcam, #ab83355) was used to analyze ATP levels. Briefly, Cells were seeded in M24 plates (neurons at 500,000 cells/mL and monolayer density for astrocytes), and for the ATP experiments, three wells per condition were combined. An alternative deproteinization protocol was applied to purify the samples, and a Colorimetric Assay was conducted as outlined in the original protocol. The measurements were obtained using the CLARIOstar Plus plate reader from BMG LABTECH.

Experiment [2] has as its system 143B cells. In words: Metabolomics of intracellular metabolites in 143B cells. The note with it: 48 h. On the procedure:
(§1) 1-5.0×10^6 cells were harvested on dry ice with 1 mL pre-chilled 80% HPLC-grade methanol (Fluka Analytical). The cell mixture was incubated for 15 min on dry ice prior to centrifugation at 18,000 × g for 10 min at 4°C. The supernatant was retained, and the remaining cell pellet was resuspended in 800 µL chilled 80% methanol and centrifuged. Supernatant was combined with the previous retention and was lyophilized using a SpeedVac (Thermo Fisher). Lyophilized samples were resuspended in 20 µL ultrapure water and subjected to metabolomics profiling using the AB/SCIEX 5500 QTRAP triple quadrupole instrument. Data analysis was performed using the GiTools software. 13C-labeled glutamine and glucose was acquired in SIGMA (605166 and 389374).
Next, we conducted time-course experiments to gain further knowledge on the metabolic determinants underlying the observed synthetic lethality between PPP and OXPHOS. 143B cells were treated either with Piericidin or G6PDi (selective inhibitor of G6PD) alone or the combination of both and cell proliferation was quantified over the course of 96 h. […] Conversely, dual inhibition produced a marked reduction in cell survival beyond 48 h of treatment that was even more accentuated at 96 h (Figure 2A). […]

In experiment [3] the test system is PC KO and ACLY KO cells. In words: Cell number / viability of PC KO and ACLY KO 143B cells. The procedure:
All cell lines, 143b, HeLa, U2OS, and transmitochondrial cybrids carrying mutation in CI (ND2), CIII (CytB) or CIV (Cox2) subunits, were maintained in DMEM high glucose (HyClone), 10% FBS and 1% P/S at 37°C with 5% CO2. Mitochondrial mutant cells were cultured with supplementation of 50 µg/mL uridine. The selected cancer cell lines with different levels of malic enzyme (HCC15, KYSE410, CAKI1, J82, MDAMB453, Colo320, NCIH1703) were obtained from the DSMZ-German Collection of Microorganisms and Cell Cultures GmbH and cultured in the same DMEM 10% FBS medium. OCI-Lys3 and RCH-ACV cell lines (cells in suspension), were obtained from the same repository and cultured in RPMI 10% FBS medium. Transfections for gain- and loss-of-function studies were performed according to the manufacturer's instructions using the polyfect reagent (Qiagen, 301107). For cell number and proliferation experiments, cells were seeded in 12 or 6-well plates and allowed to proliferate for the specified durations. Subsequently, cells were trypsinized and quantified using a hemocytometer (NanoEnTek, DHC-N01). Cell viability was quantified using propidium iodide (PI; 50 µg/ml) staining.
Generation of knockout cell lines using CRISPR-Cas9 technology was performed with the lenti-CRISPR v2 vector (Addgene #52961). Guide sequences are: • sgGFPT1, 5-[…]-3 (SEQ ID NO: 1); • sgG6PD, 5-[…]-3 (SEQ ID NO: 2); • sgPHGDH, 5-[…]-3 (SEQ ID NO: 3); • sgMPC1, 5-[…]-3 (SEQ ID NO: 4) • sgPC, 5-CAGGCCCGGAACACACGGA-3 (SEQ ID NO: 5); • sgACLY, 5-[…]-3 (SEQ ID NO: 6); • sgME1, 5-[…]-3 (SEQ ID NO: 7).
(§2) To assess the relative contribution of PC and ACLY to cell death phenotype in ETC deficient cells upon PPP inhibition, we treated PC KO and ACLY KO cells with Piericidin, G6PDi or both. A massive reduction in cell viability was observed as early as 48 h in both PC KO and ACLY KO cells after dual inhibition (Figure 3E), which correlated with a significant decrease in the intracellular levels of malate (Figure 3F). […]

In experiment [4] the test system is PC KO and ACLY KO cells. In words: Intracellular malate levels in PC KO and ACLY KO 143B cells. The note with it: double ablation of PC and ACLY, 100 nM, 72 h. The procedure: as §1
as §2, with “3F). A plausible explanation for the lack of phenotype in both PC and ACLY KO cells could be the upregulation of compensatory mechanisms whereby PC depletion would cause an enhanced rerouting of glutamine through ACLY and vice versa.” for “3F).”

As for `CC=C(C)C(O)C(C)C=C(C)C=CCC(C)=CCc1nc(OC)c(OC)c(O)c1C` (stereo not shown) [Piericidin, Piericidin A], in experiment [1], the ATP levels entry is “maintained”. Besides, in experiment [2], the NADH entry is given as “accumulation” and the “intracellular levels of NADPH” value is reported as “did not exert significant changes”. In addition, the “cell death or cell proliferation” value in experiment [3] (ACLY KO cells) is given as “did not translate into increased cell death or impaired cell proliferation”. In addition, in experiment [3] (PC KO cells, 100 nM, 72 h), the proliferation result is “proliferated normally”. In addition, the “sensitivity to ETC inhibition (cell number)” value in experiment [3] (double ablation of PC and ACLY, 100 nM, 72 h) was “sensitize”. For the same compound, the intracellular malate levels result in experiment [4] is listed as “parallel decrease”.
